Measurements as given in US8642590B2, “Alkylcyclohexylethers of dihydrotetraazabenzoazulenes” (Hoffmann-La Roche Inc., priority 2008, dated 2014).
Structures can show the parent of a compound that is named as a salt.

What follows are molecules tested against T1, human V1a receptor (Homo sapiens, UniProt P37288) (assay: human V1a receptor binding study (3H-Vasopressin, SPA beads, HEK293 membranes)). Conditions: not given.
T1 construct: expressed in transfected cells; host or cells: HEK293 cells, transiently transfected; cell membranes prepared
Experimental: The human V1a receptor was cloned by RT-PCR from total human liver RNA. The coding sequence was subcloned in an expression vector after sequencing to confirm the identity of the amplified sequence. […] Cell membranes were prepared from HEK293 cells transiently transfected with the expression vector and grown in 20 liter fermenters with the following protocol.
50 g of cells are resuspended in 30 ml freshly prepared ice cold Lysis buffer (50 mM HEPES, 1 mM EDTA, 10 mM magnesium dichloride adjusted to pH=7.4+complete cocktail of protease inhibitor (Roche Diagnostics)). Homogenized with Polytron for 1 min and sonicated on ice for 2×2 minutes at 80% intensity (Vibracell sonicator). The preparation is centrifuged 20 min at 500 g at 4° C., the pellet is discarded and the supernatant centrifuged 1 hour at 43,000 g at 4° C. (19,000 rpm). The pellet is resuspended in 12.5 ml Lysis buffer+12.5 ml Sucrose 20% and homogenized using a Polytron for 1-2 min. The protein concentration is determined by the Bradford method and aliquots are stored at −80° C. until use. For binding studies 60 mg Yttrium silicate SPA beads (Amersham) are mixed with an aliquot of membrane in binding buffer (50 mM Tris, 120 mM sodium chloride, 5 mM potassium chloride, 2 mM Calcium dichloride, 10 mM magnesium dichloride) for 15 minutes with mixing. 50 μl of bead/membrane mixture is then added to each well of a 96 well plate, followed by 50 μl of 4 nM 3H-Vasopressin (American Radiolabeled Chemicals). For total binding measurement 100 μl of binding buffer are added to the respective wells, for non-specific binding 100 μl of 8.4 mM cold vasopressin and for compound testing 100 μl of a serial dilution of each compound in 2% dimethyl sulfoxide. The plate is incubated 1 h at room temperature, centrifuged 1 min at 1000 g and counted on a Packard Top-Count. Non-specific binding counts are subtracted from each well and data is normalized to the maximum specific binding set at 100%. To calculate an IC 50 the curve is fitted using a non-linear regression model (XLfit) and the Ki is calculated using the Cheng-Prussoff equation.

T1 sequence (P37288 whole entry): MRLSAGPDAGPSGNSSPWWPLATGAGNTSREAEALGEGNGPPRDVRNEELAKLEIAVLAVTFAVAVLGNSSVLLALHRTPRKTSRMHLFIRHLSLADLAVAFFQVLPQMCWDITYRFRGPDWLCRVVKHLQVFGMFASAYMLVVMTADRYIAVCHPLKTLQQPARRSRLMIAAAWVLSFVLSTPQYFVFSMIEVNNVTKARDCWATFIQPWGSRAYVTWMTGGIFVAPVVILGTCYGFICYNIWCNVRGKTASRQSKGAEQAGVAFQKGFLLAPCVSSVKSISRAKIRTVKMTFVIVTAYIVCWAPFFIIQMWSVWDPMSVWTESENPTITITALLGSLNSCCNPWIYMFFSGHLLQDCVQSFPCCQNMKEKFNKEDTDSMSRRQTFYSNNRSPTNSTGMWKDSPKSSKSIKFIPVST

Row | Compound | Ki
1 | CC(C)(C)OC(=O)N1Cc2cc(Cl)ccc2-n2c(nnc2[C@H]2CC[C@H](OC3CCCCC3)CC2)C1 [Example 39, trans-8-Chloro-1-(4-cyclohexyloxy-cyclohexyl)-4H,6H-2,3,5,10b-tetraaza-benzoazulene-5-carboxylic acid tert-butyl ester] | 6.46 nM

Same assay, conditions: membranes of HEK293 cells transiently transfected with human V1a receptor; 3H-Vasopressin; Ki calculated using the Cheng-Prussoff equation; read-out: pKi (hV1a) (converted)

Row | Compound | Ki
2 | CN1Cc2cc(Cl)ccc2-n2c(nnc2[C@H]2CC[C@H](OC3CCCCC3)CC2)C1 [Example 41, trans-8-Chloro-1-(4-cyclohexyloxy-cyclohexyl)-5-methyl-5,6-dihydro-4H-2,3,5,10b-tetraaza-benzoazulene] | 2.88 nM
3 | CC(C)O[C@H]1CC[C@H](c2nnc3n2-c2ccc(Cl)cc2CN(S(=O)(=O)N(C)C)C3)CC1 [Example 14, trans-8-Chloro-1-(4-isopropoxy-cyclohexyl)-4H,6H-2,3,5,10b-tetraaza-benzoazulene-5-sulfonic acid dimethylamide] | 1 nM
4 | Clc1ccc2c(c1)CNCc1nnc([C@H]3CC[C@H](OC4CCC4)CC3)n1-2 [Example 31, trans-8-Chloro-1-(4-cyclobutoxy-cyclohexyl)-5,6-dihydro-4H-2,3,5,10b-tetraaza-benzo[e]azulene hydrochloride] | 10.7 nM
5 | CC(C)(C)OC(=O)N1Cc2cc(Cl)ccc2-n2c(nnc2[C@H]2CC[C@H](OC3CCCC3)CC2)C1 (stereo in doubt) [Example 36, trans-8-Chloro-1-(4-cyclopentyloxy-cyclohexyl)-4H,6H-2,3,5,10b-tetraaza-benzo[e]azulene-5-carboxylic acid tert-butyl ester] | 3.24 nM
6 | Clc1ccc2c(c1)CNCc1nnc([C@H]3CC[C@H](OC4CCCC4)CC3)n1-2 [Example 37, trans-8-Chloro-1-(4-cyclopentyloxy-cyclohexyl)-5,6-dihydro-4H-2,3,5,10b-tetraaza-benzo[e]azulene hydrochloride] | 3.47 nM
7 | CO[C@H]1CC[C@@H](c2nnc3n2-c2ccc(Cl)cc2CN(C)C3)CC1 [Example 1, cis-8-Chloro-1-(4-methoxy-cyclohexyl)-5-methyl-5,6-dihydro-4H-2,3,5,10b-tetraaza-benzo[e]azulene] | 93.3 nM
8 | CC(CC(F)(F)F)O[C@H]1CC[C@H](c2nnc3n2-c2ccc(Cl)cc2CN(C(=O)OC(C)(C)C)C3)CC1 (mixture of isomers) [Example 54, (RS)-trans-8-Chloro-1-[4-(3,3,3-trifluoro-1-methyl-propoxy)-cyclohexyl]-4H,6H-2,3,5,10b-tetraaza-benzo[e]azulene-5-carboxylic acid tert-butyl ester] | 8.51 nM
9 | COC[C@H](C)O[C@H]1CC[C@H](c2nnc3n2-c2ccc(Cl)cc2CN(C)C3)CC1 (stereo in doubt) [Example 48, (+)-trans-8-Chloro-1-[4-(2-methoxy-1-methyl-ethoxy)-cyclohexyl]-5-methyl-5,6-dihydro-4H-2,3,5,10b-tetraaza-benzo[e]azulene] | 47.9 nM
10 | Clc1ccc2c(c1)CNCc1nnc([C@H]3CC[C@H](OC4CCCCC4)CC3)n1-2 [Example 40, trans-8-Chloro-1-(4-cyclohexyloxy-cyclohexyl)-5,6-dihydro-4H-2,3,5,10b-tetraaza-benzoazulene hydrochloride] | 34.7 nM
11 | CC(CO)O[C@H]1CC[C@H](c2nnc3n2-c2ccc(Cl)cc2CNC3)CC1 (mixture of isomers) [Example 51, (RS)-trans-2-[4-(8-Chloro-5,6-dihydro-4H-2,3,5,10b-tetraaza-benzo[e]azulen-1-yl)-cyclohexyloxy]-propan-1-ol hydrochloride] | 186 nM
12 | Clc1ccc2c(c1)CNCc1nnc([C@H]3CC[C@H](OC4CCOCC4)CC3)n1-2 [Example 61, trans-8-Chloro-1-[4-(tetrahydro-pyran-4-yloxy)-cyclohexyl]-5,6-dihydro-4H-2,3,5,10b-tetraaza-benzoazulene hydrochloride] | 447 nM
13 | CC(=O)N1Cc2cc(Cl)ccc2-n2c(nnc2[C@H]2CC[C@H](OC(C)C)CC2)C1 [Example 18, trans-1-[8-Chloro-1-(4-isopropoxy-cyclohexyl)-4H,6H-2,3,5,10b-tetraaza-benzoazulen-5-yl]-ethanone] | 2.51 nM
14 | CC(C)O[C@H]1CC[C@H](c2nnc3n2-c2ccc(Cl)cc2CN(C(C)C)C3)CC1 [Example 13, trans-8-Chloro-1-(4-isopropoxy-cyclohexyl)-5-isopropyl-5,6-dihydro-4H-2,3,5,10b-tetraaza-benzoazulene] | 1.51 nM
15 | Clc1ccc2c(c1)CNCc1nnc([C@H]3CC[C@@H](OC4CCOCC4)CC3)n1-2 [Example 63, cis-8-Chloro-1-[4-(tetrahydro-pyran-4-yloxy)-cyclohexyl]-5,6-dihydro-4H-2,3,5,10b-tetraaza-benzoazulene hydrochloride] | 288 nM
16 | COCC(C)O[C@H]1CC[C@H](c2nnc3n2-c2ccc(Cl)cc2CN(C)C3)CC1 (mixture of isomers) [Example 47, (RS)-trans-8-Chloro-1-[4-(2-methoxy-1-methyl-ethoxy)-cyclohexyl]-5-methyl-5,6-dihydro-4H-2,3,5,10b-tetraaza-benzo[e]azulene] | 11.2 nM
17 | CC(C)(C)OC(=O)N1Cc2cc(Cl)ccc2-n2c(nnc2[C@H]2CC[C@@H](OC3CCOCC3)CC2)C1 [Example 60, cis-8-Chloro-1-[4-(tetrahydro-pyran-4-yloxy)-cyclohexyl]-4H,6H-2,3,5,10b-tetraaza-benzoazulene-5-carboxylic acid tert-butyl ester] | 7.08 nM
18 | CC(C)(C)OC(=O)N1Cc2cc(Cl)ccc2-n2c(nnc2[C@H]2CC[C@H](OC3CCOCC3)CC2)C1 [Example 59, trans-8-Chloro-1-[4-(tetrahydro-pyran-4-yloxy)-cyclohexyl]-4H,6H-2,3,5,10b-tetraaza-benzoazulene-5-carboxylic acid tert-butyl ester] | 5.62 nM
19 | CCO[C@H]1CC[C@@H](c2nnc3n2-c2ccc(Cl)cc2CN(C)C3)CC1 [Example 7, cis-8-Chloro-1-(4-ethoxy-cyclohexyl)-5-methyl-5,6-dihydro-4H-2,3,5,10b-tetraaza-benzo[e]azulene] | 55 nM
20 | CC(CF)O[C@H]1CC[C@H](c2nnc3n2-c2ccc(Cl)cc2CN(C)C3)CC1 (mixture of isomers) [Example 53, (RS)-trans-8-Chloro-1-[4-(2-fluoro-1-methyl-ethoxy)-cyclohexyl]-5-methyl-5,6-dihydro-4H-2,3,5,10b-tetraaza-benzo[e]azulene] | 2.82 nM
21 | CC(C)O[C@H]1CC[C@H](c2nnc3n2-c2ccc(F)cc2CN(C(=O)OC(C)(C)C)C3)CC1 [Example 19, trans-8-Fluoro-1-(4-isopropoxy-cyclohexyl)-4H,6H-2,3,5,10b-tetraaza-benzo[e]azulene-5-carboxylic acid tert-butyl ester] | 3.8 nM
22 | Clc1ccc2c(c1)CNCc1nnc([C@H]3CC[C@@H](OC4CCC4)CC3)n1-2 [Example 34, cis-8-Chloro-1-(4-cyclobutoxy-cyclohexyl)-5,6-dihydro-4H-2,3,5,10b-tetraaza-benzo[e]azulene hydrochloride] | 145 nM
23 | CC(C)O[C@H]1CC[C@H](c2nnc3n2-c2ccc(Cl)cc2CN(C(=O)OC(C)(C)C)C3)CC1 [Example 8, trans-8-Chloro-1-(4-isopropoxy-cyclohexyl)-4H,6H-2,3,5,10b-tetraaza-benzo[e]azulene-5-carboxylic acid tert-butyl ester] | 1.29 nM
24 | CC(C)O[C@H]1CC[C@@H](c2nnc3n2-c2ccc(Cl)cc2CNC3)CC1 [Example 23, cis-8-Chloro-1-(4-isopropoxy-cyclohexyl)-5,6-dihydro-4H-2,3,5,10b-tetraaza-benzo[e]azulene hydrochloride] | 363 nM
